Results reported in patent US7858606B2, “Triterpenoid derivatives” (Univerzita Palackeho v Olomouci, priority 2001, dated 2010).
Where two headings read alike, the source gives them in different places.

What was measured:
Assay type in all cases: cell-based
[1] = test system: Human T-lymphoblastic leukaemia cell line CEM; test: MTT cytotoxicity screening assay, CEM; conditions: human T-lymphoblastic leukemia, 72 hours, read-out: TCS50
Source text: (§1) One of the parameters used as the basis for colorimetric assays is the metabolic activity of viable cells. For example, a microtiter assay which uses the tetrazolium salt MTT is now widely used to quantitate cell proliferation and cytotoxicity [Hajdúch M, Mihál V, Minarík J, Fáber E, Safárová M, Weigl E, Antálek P.: Cytotechnology, 1996, 19, 243-245]. For instance, this assay is used in drug screening programs and in chemosensitivity testing. Because tetrazolium salts are cleaved only by metabolically active cells, these assays exclusively detect viable cells. In the case of the MTT assay, yellow soluble tetrazolium salt is reduced to a coloured water-insoluble formazan salt. After it is solubilized, the formazan formed can easily and rapidly be quantified in a conventional ELISA plate reader at 570 nm (maximum absorbency). The quantity of reduced formazan corresponds to the number of vital cells in the culture.
(§2) Human T-lymphoblastic leukaemia cell line CEM was used for routine screening of these compounds. […] The cells were maintained in Nunc/Corning 80 cm^2 plastic tissue culture flasks and cultured in cell culture medium (DMEM with 5 g/l glucose, 2 mM glutamine, 100 U/ml penicillin, 100 μg/ml streptomycin, 10% foetal calf serum and sodium bicarbonate). Individual compounds were dissolved in 10% dimethylsulfoxide/saline, pH 8.0.
The cell suspensions that were prepared and diluted according to the particular cell type and the expected target cell density (2.500-30.000 cells per well based on cell growth characteristics) were added by pipette (80 μl) into 96/well microtiter plates. Inoculates were allowed a pre-incubation period of 24 hours at 37° C. and 5% CO2 for stabilisation. Four-fold dilutions of the intended test concentration were added at time zero in 20 μl aliquots to the microtiter plate wells. Usually, test compounds were evaluated at six 4-fold dilutions. In routine testing, the highest well concentration was 250 μM, but it may differ, depending on the agent. All drug concentrations were examined in duplicate. Incubations of cells with the test compounds lasted for 72 hours at 37° C., in 5% CO2 atmosphere and 100% humidity. At the end of the incubation period, the cells were assayed by using the MTT assay. Ten microliters of the MTT stock solution were pipetted into each well and incubated further for 1-4 hours. After this incubation period, formazan was solubilized by the addition of 100 μl/well of 10% SDS in water (pH=5.5) followed by further incubation at 37° C. overnight. The optical density (OD) was measured at 540 nm with the Labsystem iEMS Reader MF(UK). The tumour cell survival (TCS) was calculated using the following equitation: TCS=(ODdrug exposed well/mean ODcontrol wells)×100%. The TCS50 value, the drug concentration lethal to 50% of the tumour cells, was calculated from the obtained dose response curves.
To evaluate the anti-cancer activity of betulinines, their cytotoxic activity against CEM cell line was examined using the screening assay. Potent compounds were further tested against a panel of cell lines of different histogenetic and species origin (Table 2).

U2OS human osteosarcoma = test: MTT cytotoxicity assay, U2OS; conditions: p53+/−, Rb +/−, 72 hours, read-out: TCS50
Source text: as §1, §2
(§3) The cell suspensions that were prepared and diluted according to the particular cell type and the expected target cell density (2.500-30.000 cells per well based on cell growth characteristics) were added by pipette (80 μl) into 96/well microtiter plates. […] Usually, test compounds were evaluated at six 4-fold dilutions. […] The optical density (OD) was measured at 540 nm with the Labsystem iEMS Reader MF(UK). The tumour cell survival (TCS) was calculated using the following equitation: TCS=(ODdrug exposed well/mean ODcontrol wells)×100%. The TCS50 value, the drug concentration lethal to 50% of the tumour cells, was calculated from the obtained dose response curves.

[2] = test system: K562-FLUD human promyelocytic leukemia, fludarabin resistant; test: MTT cytotoxicity assay, K562-FLUD; conditions: 72 hours, read-out: TCS50
Source text: as §1, §2, §3

[3] = test system: CEM-DNR 1/C2 human T-lymphoblastic leukemia, daunorubicin resistant; test: MTT cytotoxicity assay, CEM-DNR 1/C2; conditions: 72 hours, read-out: TCS50
Source text: as §1, §2, §3

[4] = test system: K562-ARA-C human promyelocytic leukemia, cytarabin resistant; test: MTT cytotoxicity assay, K562-ARA-C; conditions: 72 hours, read-out: TCS50
Source text: as §1, §2, §3

[5] = test system: CEM-VCR bulk human T-lymphoblastic leukemia, vincristin resistant; test: MTT cytotoxicity assay, CEM-VCR bulk; conditions: 72 hours, read-out: TCS50
Source text: as §1, §2, §3

[6] = test system: K562-GEM human promyelocytic leukemia, gemcitabin resistant; test: MTT cytotoxicity assay, K562-GEM; conditions: 72 hours, read-out: TCS50
Source text: as §1, with “culture. […]” for “culture.”
(§4) The cell suspensions that were prepared and diluted according to the particular cell type and the expected target cell density (2.500-30.000 cells per well based on cell growth characteristics) were added by pipette (80 μl) into 96/well microtiter plates. […] Usually, test compounds were evaluated at six 4-fold dilutions. […] The optical density (OD) was measured at 540 nm with the Labsystem iEMS Reader MF(UK). […]

HT-29 human colon cancer = test: MTT cytotoxicity assay, HT-29; conditions: 72 hours, read-out: TCS50
Source text: as §1, §2, §3

[7] = test system: OVCAR-3 human ovarian cancer; test: MTT cytotoxicity assay, OVCAR-3; conditions: 72 hours, read-out: TCS50
Source text: as §1, with “culture. […]” for “culture.”
as §4

U87MG human glioblastoma = test: MTT cytotoxicity assay, U87MG; conditions: 72 hours, read-out: TCS50
Source text: as §1, §2, §3

[8] = test system: HepG2 human hepatocellular carcinoma; test: MTT cytotoxicity assay, HepG2; conditions: 72 hours, read-out: TCS50
Source text: as §1, §2, §3

[9] = test system: LNCaP human prostate cancer; test: MTT cytotoxicity assay, LNCaP; conditions: androgen dependent, 72 hours, read-out: TCS50
Source text: as §1, with “culture. […]” for “culture.”
as §4

human normal lymphocytes = test: MTT cytotoxicity assay, normal lymphocytes; conditions: human normal lymphocytes (non-malignant), 72 hours, read-out: TCS50
Source text: as §1, §2, §3

[10] = test system: BT549 human breast cancer; test: MTT cytotoxicity assay, BT549; conditions: 72 hours, read-out: TCS50
Source text: as §1, §2, §3

Saos2 human = test: MTT cytotoxicity assay, Saos2; conditions: p53−/−, Rb−/−, 72 hours, read-out: TCS50
Source text: as §1, §2, §3

[11] = test system: B16F mouse melanoma, metastatic cell line; test: MTT cytotoxicity assay, B16F; conditions: 72 hours, read-out: TCS50
Source text: as §1, §2, §3

[12] = test system: DU145 human prostate cancer; test: MTT cytotoxicity assay, DU145; conditions: androgen independent, Rb−/−, 72 hours, read-out: TCS50
Source text: as §1, with “culture. […]” for “culture.”
as §4

[13] = test system: CEM-DNR bulk human T-lymphoblastic leukemia, daunorubicin resistant; test: MTT cytotoxicity assay, CEM-DNR bulk; conditions: 72 hours, read-out: TCS50
Source text: as §1, §2, §3

[14] = test system: K562-CdA human promyelocytic leukemia, cladrubin resistant; test: MTT cytotoxicity assay, K562-CdA; conditions: 72 hours, read-out: TCS50
Source text: as §1, §2, §3

[15] = test system: CEM-VCR 1/F3 human T-lymphoblastic leukemia, vincristin resistant; test: MTT cytotoxicity assay, CEM-VCR 1/F3; conditions: 72 hours, read-out: TCS50
Source text: as §1, §2, §3

[16] = test system: CEM-VCR 3/D5 human T-lymphoblastic leukemia, vincristin resistant; test: MTT cytotoxicity assay, CEM-VCR 3/D5; conditions: 72 hours, read-out: TCS50
Source text: as §1, §2, §3

[17] = test system: NIH3T3 mouse immortalised fibroblasts; test: MTT cytotoxicity assay, NIH3T3; conditions: NIH3T3, mouse immortalised fibroblasts (non-malignant), 72 hours, read-out: TCS50
Source text: as §1, §2, §3

[18] = test system: A549 human lung adenocarcinoma; test: MTT cytotoxicity assay, A549; conditions: 72 hours, read-out: TCS50
Source text: as §1, with “culture. […]” for “culture.”
as §4

[19] = test system: SW620 human colon cancer, metastasis; test: MTT cytotoxicity assay, SW620; conditions: read-out: TCS50
Source text: as §1, §2, §3

[20] = test system: Caco-2 human colon cancer; test: MTT cytotoxicity assay, Caco-2; conditions: 72 hours, read-out: TCS50
Source text: as §1, §2, §3

[21] = test system: MCF-7 human breast cancer; test: MTT cytotoxicity assay, MCF-7; conditions: estrogen dependent, p53+/+, Rb +/+, 72 hours, read-out: TCS50
Source text: as §1, with “culture. […]” for “culture.”
as §4

[22] = test system: B16 mouse melanoma cell line; test: MTT cytotoxicity assay, B16; conditions: 72 hours, read-out: TCS50
Source text: as §1, §2, §3

[23] = test system: MDA-MB-238 human breast cancer; test: MTT cytotoxicity assay, MDA-MB-238; conditions: estrogen independent, p53mut/mut, 72 hours, read-out: TCS50
Source text: as §1, with “culture. […]” for “culture.”
as §4

MEL-3 human melanoma = test: MTT cytotoxicity assay, MEL-3; conditions: 72 hours, read-out: TCS50
Source text: as §1, §2, §3

C=C(C)C1CCC2(C(=O)OC)CCC3(C)C(CCC4C5(C)CCC(OC(=O)OCC(O)CO)C(C)(C)C5CCC43C)C12 (stereo not drawn) [II.45, 17β-methoxycarbonyl-28-norlup-20(29)-en-3β-yl(2,3-dihydroxypropyl)carbonate]
IC50 [1]: 13 µM

3β-acetoxy-lup-20(29)-en-28-oyl fluoride [II.55]
IC50 [1]: 19 µM

C=C(C=O)[C@@H]1CC[C@]2(C(=O)O)CC[C@]3(C)[C@H](CC[C@@H]4[C@@]5(C)CC[C@H](O)C(C)(C)[C@@H]5CC[C@]43C)[C@@H]12 [II.14, 3β-hydroxy-30-oxolup-20(29)-en-28-oic acid]
IC50 (U2OS human osteosarcoma): 3.9 µM | IC50 [2]: 1.3 µM | IC50 [3]: 1.6 µM | IC50 [4]: 1.6 µM | IC50 [5]: 7 µM | IC50 [6]: 2.4 µM | IC50 (HT-29 human colon cancer): 4.7 µM | IC50 [7]: 2.6 µM | IC50 (U87MG human glioblastoma): 8.4 µM | IC50 [8]: 7.1 µM | IC50 [9]: 3.6 µM | IC50 (human normal lymphocytes): 25 µM | IC50 ([10]; p53mut/mut): 6.3 µM | IC50 (Saos2 human; Saos2, human rhabdomyosarcoma): 4.8 µM | IC50 [11]: 12 µM | IC50 [12]: 2.8 µM | IC50 [13]: 3.3 µM | IC50 [14]: 2.1 µM | IC50 [15]: 5.9 µM | IC50 [16]: 7.8 µM | IC50 [17]: 16 µM | IC50 [18]: 3.3 µM | IC50 ([19]; 72 hours): 5.9 µM | IC50 [20]: 7.7 µM | IC50 [21]: 4.3 µM | IC50 [22]: 9.3 µM | IC50 [1]: 3 µM | IC50 [23]: 2.4 µM | IC50 (MEL-3 human melanoma): 3.7 µM

COC(=O)C12CCC3(C)C(CCC4C5(C)CCC(OC(C)=O)C(C)(C)C5CCC43C)C1=C(C(C)C)C(=O)C2=O (stereo not drawn) [II.4, methyl 3β-acetoxy-21,22-dioxolup-18-en-28-oate]
IC50 (U2OS human osteosarcoma): 4.3 µM | IC50 [2]: 4.9 µM | IC50 [3]: 10 µM | IC50 [4]: 6.4 µM | IC50 [5]: 28 µM | IC50 [6]: 5 µM | IC50 (HT-29 human colon cancer): 5.6 µM | IC50 [7]: 4.7 µM | IC50 (U87MG human glioblastoma): 24 µM | IC50 [8]: 5.1 µM | IC50 [9]: 3.3 µM | IC50 (human normal lymphocytes): 85 µM | IC50 ([10]; p53mut/mut): 15 µM | IC50 (Saos2 human; Saos2, human rhabdomyosarcoma): 7.9 µM | IC50 [11]: 68 µM | IC50 [12]: 2 µM | IC50 [13]: 5.2 µM | IC50 [14]: 5.2 µM | IC50 [15]: 38 µM | IC50 [16]: 13 µM | IC50 [17]: 97 µM | IC50 [18]: 6.7 µM | IC50 ([19]; 72 hours): 5.9 µM | IC50 [20]: 8.1 µM | IC50 [21]: 13 µM | IC50 [22]: 35 µM | IC50 [1]: 7.2 µM | IC50 [23]: 3.3 µM | IC50 (MEL-3 human melanoma): 5.9 µM

C=C(C)[C@@H]1CC[C@]2(C(=O)O)CC[C@]3(C)[C@H](CC[C@@H]4[C@@]5(C)CC[C@H](O)C(C)(C)[C@@H]5CC[C@]43C)[C@@H]12 [Betulinic acid, betulinic acid, reference compound]
IC50 (U2OS human osteosarcoma): 250 µM | IC50 [2]: 250 µM | IC50 [3]: 250 µM | IC50 [4]: 250 µM | IC50 [5]: 69 µM | IC50 (HT-29 human colon cancer): 250 µM | IC50 (U87MG human glioblastoma; U-87 MG): 250 µM | IC50 [8]: 3.6 µM | IC50 (human normal lymphocytes; Lymphocyte): 250 µM | IC50 ([10]; BT-549, p53mut/mut): 250 µM | IC50 (Saos2 human; SAOS-2, Saos2, human rhabdomyosarcoma): 250 µM | IC50 [11]: 4.6 µM | IC50 [13]: 250 µM | IC50 [14]: 250 µM | IC50 [15]: 19 µM | IC50 [16]: 24 µM | IC50 [17]: 250 µM | IC50 ([19]; SW-620, 72 hours): 250 µM | IC50 [20]: 20 µM | IC50 [22]: 36 µM | IC50 [1]: 250 µM | IC50 (MEL-3 human melanoma): 2.7 µM
